Source: the supplement of paper PMC10307832

Tests used:
Assay in all cases: relative viability (nuclei count vs DMSO), 5 days (fraction); higher = more cells survive
Carboplatin + Navitoclax = compound: C1CC(C1)(C(=O)O)C(=O)O.[NH2-].[NH2-].[Pt+2] [Carboplatin] + CC1(C)CCC(c2ccc(Cl)cc2)=C(CN2CCN(c3ccc(C(=O)NS(=O)(=O)c4ccc(N[C@H](CCN5CCOCC5)CSc5ccccc5)c(S(=O)(=O)C(F)(F)F)c4)cc3)CC2)C1 [Navitoclax] (partner 0.5 µM)
How it was run: (§1)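 For relative viability, nuclei counts in treated wells were divided by those in vehicle wells. Lung cancer cell lines had been pin-tool dosed in 1536-well plates the day after seeding and cultured for 5 days, then fixed and stained in one step (final 0.05% Triton X-100, 1% formaldehyde, 1 ug/ml Hoechst) and imaged at 4×. Doses were one drug alone or a fixed anchor-drug dose plus five library-drug doses (not always all listed) in √10 steps, and values are duplicate-plate medians.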

GSK126 + Bortezomib = compound: CC[C@H](C)N1C=C(C2=C(C=C(C=C21)C3=CN=C(C=C3)N4CCNCC4)C(=O)NCC5=C(C=C(NC5=O)C)C)C [GSK126] + CC(C)C[C@H](NC(=O)[C@H](Cc1ccccc1)NC(=O)c1cnccn1)B(O)O [Bortezomib] (partner 0.002 µM)
How it was run: as §1

GSK126 + Linsitinib = compound: CC[C@H](C)N1C=C(C2=C(C=C(C=C21)C3=CN=C(C=C3)N4CCNCC4)C(=O)NCC5=C(C=C(NC5=O)C)C)C [GSK126] + C[C@]1(O)C[C@@H](c2nc(-c3ccc4ccc(-c5ccccc5)nc4c3)c3c(N)nccn32)C1 [Linsitinib] (partner 1 µM)
How it was run: as §1

Carboplatin + Lapatinib = compound: C1CC(C1)(C(=O)O)C(=O)O.[NH2-].[NH2-].[Pt+2] [Carboplatin] + CS(=O)(=O)CCNCc1ccc(-c2ccc3ncnc(Nc4ccc(OCc5cccc(F)c5)c(Cl)c4)c3c2)o1 [Lapatinib] (partner 2 µM)
How it was run: as §1

Row | Cell Line | relative viability (Carboplatin + Navitoclax; first compound 0.08 µM) | relative viability (Carboplatin + Navitoclax; first compound 0.253 µM) | relative viability (Carboplatin + Navitoclax; first compound 0.8 µM) | relative viability (Carboplatin + Navitoclax; first compound 2.53 µM) | relative viability (Carboplatin + Navitoclax; first compound 8 µM) | relative viability (GSK126 + Bortezomib; first compound 0.08 µM) | relative viability (GSK126 + Bortezomib; first compound 0.253 µM) | relative viability (GSK126 + Bortezomib; first compound 0.8 µM) | relative viability (GSK126 + Bortezomib; first compound 2.53 µM) | relative viability (GSK126 + Bortezomib; first compound 8 µM) | relative viability (GSK126 + Linsitinib; first compound 0.08 µM) | relative viability (GSK126 + Linsitinib; first compound 0.253 µM) | relative viability (GSK126 + Linsitinib; first compound 0.8 µM) | relative viability (GSK126 + Linsitinib; first compound 2.53 µM) | relative viability (GSK126 + Linsitinib; first compound 8 µM) | relative viability (Carboplatin + Lapatinib; first compound 0.08 µM) | relative viability (Carboplatin + Lapatinib; first compound 0.253 µM) | relative viability (Carboplatin + Lapatinib; first compound 0.8 µM) | relative viability (Carboplatin + Lapatinib; first compound 2.53 µM) | relative viability (Carboplatin + Lapatinib; first compound 8 µM)
1 | ChaGo-K-1 | 1.17 | 1.01 | 0.944 | 0.798 | 0.53 | 0.969 | 1.02 | 0.979 | 1.19 | 1.06 | – | – | – | – | – | – | – | – | – | –
2 | NCI-H358 | – | – | – | – | – | – | – | – | – | – | 0.939 | 0.768 | 0.785 | 0.675 | 0.738 | 0.483 | 0.474 | 0.538 | 0.485 | 0.543
3 | NCI-H1563 | – | – | – | – | – | 0.948 | 0.924 | 0.937 | 0.887 | 0.834 | 1.2 | 1.11 | 1.16 | 1.12 | 1.26 | 0.998 | 1.07 | 1.11 | 0.925 | 0.979
4 | NCI-H661 | – | – | – | – | – | 1 | 0.88 | 0.808 | 0.926 | 0.632 | 0.531 | 0.561 | 0.519 | 0.719 | 0.497 | 0.649 | 0.511 | 0.331 | 0.369 | 0.459
5 | SK-MES-1 | 1.13 | 1.3 | 1.2 | 1.21 | 1.16 | – | – | – | – | – | 1.12 | 1.07 | 0.985 | 0.981 | 1.06 | 0.469 | 0.475 | 0.506 | 0.548 | 0.472
6 | ABC-1 | – | – | – | – | – | 0.319 | 0.35 | 0.336 | 0.309 | 0.268 | 0.83 | 1.03 | 0.67 | 0.703 | 0.755 | 1.12 | 1.55 | 0.848 | 0.902 | 1.17
7 | LK-2 | 0.905 | 1.03 | 0.74 | 0.74 | 0.995 | – | – | – | – | – | 0.397 | 0.485 | 0.626 | 0.944 | 0.352 | 1.17 | 0.956 | 0.858 | 0.792 | 0.809
8 | NCI-H650 | – | – | – | – | – | 0.812 | 0.814 | 0.762 | 0.804 | 0.727 | 1.11 | 0.789 | 0.934 | 0.974 | 1.13 | 1.06 | 0.852 | 0.876 | 0.976 | 0.521
9 | NCI-H2170 | 0.679 | 0.594 | 0.633 | 0.588 | 0.508 | – | – | – | – | – | – | – | – | – | – | 0.273 | 0.279 | 0.269 | 0.257 | 0.262
10 | A549 | 1.25 | 1.29 | 1.18 | 0.985 | 0.535 | – | – | – | – | – | 0.687 | 0.524 | 0.541 | 0.594 | 0.58 | 1.12 | 0.938 | 0.911 | 0.928 | 0.437
11 | NCI-H1944 | 1.1 | 1.1 | 0.991 | 1.02 | 0.656 | – | – | – | – | – | 1.48 | 1.18 | 1.15 | 1.22 | 1.33 | 0.783 | 0.978 | 0.833 | 0.919 | 0.586
